Test results as given in patent publication US10173968B2, “Bishydrazone-based antifungal agents” (University of Kentucky Research Foundation, priority 2016, dated 2019).
Where two headings read alike, the source gives them in different places.

What was measured:
B. subtilis 168 = assay: Antibacterial MIC, double-dilution method; assay type: cell-based; details: Bacillus subtilis, strain A, Gram-positive
Outline: (§1)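 Step one: single-point test of each compound at 500 μM. Step two: MIC determination across doubling dilutions.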

E. coli MC1061 = assay: Antibacterial MIC, double-dilution method; assay type: cell-based; details: Escherichia coli, strain G, Gram-negative, read-out: MIC
Outline: as §1

K. pneumoniae ATCC 27736 = assay: Antibacterial MIC, double-dilution method; assay type: cell-based; details: Klebsiella pneumoniae, ATCC27736, strain H, Gram-negative, read-out: MIC
Outline: as §1

[1] = system: L. monocytogenes ATCC 19115; assay: Antibacterial MIC, double-dilution method; assay type: cell-based; details: Listeria monocytogenes, ATCC19115, strain B, Gram-positive, read-out: MIC
Outline: as §1

M. smegmatis MC2-155 = assay: Antibacterial MIC, double-dilution method; assay type: cell-based; details: Mycolicibacterium smegmatis, MC2155, strain K, mycobacterial; converted from μM; read-out: MIC
Outline: as §1

MRSA = assay: Antibacterial MIC, double-dilution method; assay type: cell-based; details: Staphylococcus aureus, strain C, Gram-positive, read-out: MIC
Outline: as §1

P. aeruginosa ATCC 27853 = assay: Antibacterial MIC, double-dilution method; assay type: cell-based; details: Pseudomonas aeruginosa, ATCC27853, strain I, Gram-negative, read-out: MIC
Outline: as §1

S. enterica ATCC 14028 = assay: Antibacterial MIC, double-dilution method; assay type: cell-based; details: Salmonella enterica, ATCC14028, strain J, Gram-negative, read-out: MIC
Outline: as §1

VRE = assay: Antibacterial MIC, double-dilution method; assay type: cell-based; details: Enterococcus, strain D, Gram-positive, converted from μM, read-out: MIC
Outline: as §1

C. albicans ATCC 1003 = assay: Antifungal MIC, CLSI M27-A3 microbroth dilution; assay type: cell-based, Candida albicans; details: Candida albicans, ATCC1003; C. albicans ATCC 1003; converted from μg/mL; read-out: MIC
Procedure: (§2) In vitro MIC testing was performed according to the CLSI M27-A3 standard microbroth dilution methodology for the susceptibility testing of yeasts with minor modifications.

C. albicans ATCC 10231 [2] = assay: Antifungal MIC, CLSI M27-A3 microbroth dilution; assay type: cell-based, Candida albicans; details: Candida albicans, ATCC10231, C. albicans ATCC 10231, resistant to FLC, ITC, and VOR, read-out: MIC
Procedure: as §2

C. albicans ATCC 1237 = assay: Antifungal MIC, CLSI M27-A3 microbroth dilution; assay type: cell-based, Candida albicans; details: Candida albicans, ATCC1237, C. albicans ATCC 1237, resistant to FLC, ITC, and VOR; converted from μg/mL; read-out: MIC
Procedure: as §2

C. albicans ATCC 2310 = assay: Antifungal MIC, CLSI M27-A3 microbroth dilution; assay type: cell-based, Candida albicans; details: Candida albicans, ATCC2310; C. albicans ATCC 2310, susceptible to FLC, ITC, and VOR; converted from μg/mL; read-out: MIC
Procedure: as §2

C. albicans ATCC 2876 = assay: Antifungal MIC, CLSI M27-A3 microbroth dilution; assay type: cell-based, Candida albicans; details: Candida albicans, ATCC2876; C. albicans ATCC 2876, susceptible to FLC, ITC, and VOR; converted from μg/mL; read-out: MIC
Procedure: as §2

C. albicans ATCC 64124 = assay: Antifungal MIC, CLSI M27-A3 microbroth dilution; assay type: cell-based, Candida albicans; details: Candida albicans, ATCC64124; C. albicans ATCC 64124, resistant to FLC, ITC, and VOR; converted from μg/mL; read-out: MIC
Procedure: as §2

C. albicans ATCC 90819 = assay: Antifungal MIC, CLSI M27-A3 microbroth dilution; assay type: cell-based, Candida albicans; details: Candida albicans, ATCC90819; C. albicans ATCC 90819, resistant to FLC, ITC, and VOR; converted from μg/mL; read-out: MIC
Procedure: as §2

[3] = system: L. monocytogenes ATCC 19115 (strain B); assay type: cell-based, Listeria monocytogenes
Procedure: (§3) The bacteria were grown in MH broth at 37° C. for these experiments. […] The resulting cultures were diluted 1:1000 and grown until the culture reached ˜300,000 cfu/mL. That culture was then further diluted 1:1000 and used to determine the next round of MIC values.

MRSA (strain C) = assay type: cell-based, Staphylococcus aureus
Procedure: as §3

VRE (strain D) = assay type: cell-based, enterococcus
Procedure: as §3

[4] = system: P. aeruginosa ATCC 27853 (strain I); assay type: cell-based
Procedure: as §3

C. albicans ATCC 10231 [5] = assay type: cell-based, Candida albicans
C. albicans ATCC 10231 [6] = assay: Intracellular ROS production, DCFH-DA fluorescence assay; assay type: cell-based, Candida albicans; details: at 1× and 2× MIC values, 1 h at 35° C.
From the text: We used the 2′,7′-dichlorodihydrofluorescein diacetate (DCFH-DA) dye as a probe to measure the production of ROS in yeast cells upon treatment with our compounds. DCFH-DA can easily cross the cell membranes and be hydrolyzed by cellular esterases to the non-fluorescent 2′,7′-dichlorodihydrofluorescein (DCFH), which can further be oxidized to the highly fluorescent 2′,7′-dichlorofluorescein (DCF) by the intracellular ROS. Five mL of RPMI 1640 medium were inoculated using a single colony of C. albicans ATCC 10231 (strain A) in a Falcon tube and grown overnight at 35° C. at 200 rpm. The overnight culture was diluted by adding 200 μL of yeast cells to 800 μL of the same medium. […] H2O2 at 1 mM was also used as a positive control. Cells were centrifuged and washed twice with PBS buffer (pH 7.2). Cells were resuspended in the same buffer and incubated with DCFH-DA (20 μg/mL) for 30 min in the dark. Afterwards, cells were centrifuged and washed with PBS buffer to remove excess DCFH-DA. Glass slides with 10-15 μL of each mixture were prepared and observed in bright field and fluorescence modes (FITC filter set, excitation and emission wavelengths of 488 and 512 nm, respectively) using a Zeiss Axovert 200M fluorescence microscope (FIG. 3).

[7] = system: C. albicans strains (panel of seven); assay: Antifungal MIC, summary over the panel; assay type: cell-based, Candida albicans
Procedure: In vitro MIC testing was performed according to the CLSI M27-A3 standard microbroth dilution methodology for the susceptibility testing of yeasts with minor modifications. […] MIC values were read visually for all tested compounds, and the endpoint was determined as the minimum concentration of compound that yielded complete inhibition relative to growth control.

[8] = after 15 serial passages at sub-inhibitory concentrations

With `C/C(=N\NC(=N)N)c1ccc2c(c1)Cc1cc(/C(C)=N/NC(=N)N)ccc1-2.Cl.Cl` [Compound 4F, (2E,2′E)-2,2′-((9H-Fluorene-2,7-diyl)bis(ethan-1-yl-1-ylidene))bis(hydrazine-1-carboximidamide) dihydrochloride] the MIC (B. subtilis 168; converted from μM) was 3.4 µg/mL, the MIC (B. subtilis 168; range 0.5 to 500 μM) was 7.8 µM and the MIC (E. coli MC1061; converted from μM) was 218 µg/mL. For the same molecule, the MIC (E. coli MC1061; range 0.5 to 500 μM) was 500 µM, the MIC (K. pneumoniae ATCC 27736; converted from μM) was 13.6 to 27.2 µg/mL and the MIC (K. pneumoniae ATCC 27736; range 0.5 to 500 μM) was 31.3 to 62.5 µM. It also gave an MIC ([1]; converted from μM) of under 0.2 µg/mL, an MIC ([1]; range 0.5 to 500 μM) of under 0.5 µM and an MIC (M. smegmatis MC2-155) of 0.4 µg/mL. For the same molecule, the MIC (MRSA; converted from μM) was 0.4 to 0.9 µg/mL, the MIC (MRSA; range 0.5 to 500 μM) was 1 to 2 µM and the MIC (P. aeruginosa ATCC 27853; converted from μM) was 0.4 to 0.9 µg/mL. For the same molecule, the MIC (P. aeruginosa ATCC 27853; range 0.5 to 500 μM) was 1 to 2 µM, the MIC (S. enterica ATCC 14028; converted from μM) was 1.7 µg/mL and the MIC (S. enterica ATCC 14028; range 0.5 to 500 μM) was 3.9 µM. For the same molecule, the MIC (VRE) was 0.4 µg/mL, the MIC (C. albicans ATCC 1003) was 2.3 µM and the MIC (C. albicans ATCC 10231 [2]; converted from μg/mL) was 2.3 to 4.6 µM. For the same molecule, the MIC (C. albicans ATCC 10231 [2]) was 1 to 2 µg/mL, the MIC (C. albicans ATCC 1237) was 4.6 µM and the MIC (C. albicans ATCC 2310) was 2.3 µM. It also gave an MIC (C. albicans ATCC 2876) of 2.3 µM, an MIC (C. albicans ATCC 64124) of 2.3 µM and an MIC (C. albicans ATCC 90819) of 4.6 µM. For the same molecule, the “increase in relative MIC values” [3, 8] was “one-fold”, the “development of resistance (passages after which resistance developed)” value (from here on “development of resistance”) ([3]; up to 15 passages) was “did not develop resistance” and the “increase in relative MIC values” (MRSA (strain C); [8]) was “one-fold”. The “development of resistance” value (MRSA (strain C); up to 15 passages) was “did not develop resistance”, the “increase in relative MIC values” (VRE (strain D); [8]) was “one-fold” and the “development of resistance” value (VRE (strain D); up to 15 passages) was “did not develop resistance”. For the same molecule, the “increase in relative MIC values” [4, 8] was “one-fold”, the “development of resistance” value ([4]; up to 15 passages) was “did not develop resistance” and the “shift in relative MIC values” (C. albicans ATCC 10231 [5]; after 13 passages, sub-MIC drug concentrations) was 2 fold. For the same molecule, the “development of drug resistance” value (C. albicans ATCC 10231 [5]; repeated treatments with sub-MIC drug concentrations) was “unable to develop drug resistance”, the “intracellular ROS production” value (C. albicans ATCC 10231 [6]) was “significantly increased intracellular ROS production” and the MIC ([7]; Candida albicans, all, most or majority of the fungal strains, read-out: MIC, span over C. albicans strains) was 1 to 3.9 µg/mL. The “antifungal activity in words” value ([7]; against all fungal strains tested) was “excellent antifungal activities”.
